In brackets after ≈: the same amount, converted by molar mass. Entries after “also recorded” stand apart in the source; their conditions may differ.

The values below come from patent publication US20060128708A1, “Antagonizing an adenosine A2A receptor to ameliorate one or more components of addictive behavior” (priority 2004, published 2006).

Data set [1] relates to Male Long Evans rats. Nature of the data set: Ethanol operant self-administration in rats (30 min FR3 session, 10% EtOH). Type of data set: in vivo, rat. Here is the method: Separate groups of rats were given the D2 antagonist eticlopride (0.005, 0.007, 0.01 mg/kg), the A2A antagonist DMPX (1, 3, 5, 7, 10 and 20 mg/kg) and the Al antagonist DPCPX (0.125, 0.25, 0.5 mg/kg) by systemic injections.
Male Long Evans rats (Harlan, Indianapolis, Ind.) weighing approximately 250 g at the beginning of the studies, were individually housed with food and water available ad libitum except when stated otherwise. They were maintained on a 12 h light/dark cycle, lights on at 7:00 am. Operant training occurred between 8:30 am and 2:00 pm. The experimental procedures were approved in advance by our Institutional Animal Care and Use Committee.
(§1) EtOH dilution (10% v/v) for self-administration was made up using 95% ethyl alcohol and tap water. Sucrose (Saccharose, Fisher Scientific, Fair Lawn, N.J., USA) solution (10% w/v) was made up with tap water. All the compounds tested were obtained from Sigma Chemical Co. (St. Louis, Mo.). The A2A antagonist DMPX (3,7-Dimethyl-1-propargylxanthine) was dissolved in warm saline. The A1 antagonist DPCPX (8-Cyclopentyl-1,3-dipropylxanthine) was dissolved in 20:80 v/v mixture of Alkamuls EL-620 (Rhodia Inc., Cranbury, N.J., USA) and phosphate buffered saline. The D2 antagonist, eticlopride, was dissolved in saline. Drugs were administered in a 1 ml/kg volume except for the group tested with 5, 7 and 20 mg/kg DMPX, in which the injection volume was 2 ml/kg as the highest DMPX soluble concentration achieved was 10 mg/ml. Drugs were prepared fresh every treatment day.
EtOH operant self-administration was carried out in standard operant chambers (Med Associates, Georgia, Vt.) housed in sound-attenuated cubicles. Each chamber (33×30.5×33 cm) contained two retractable levers against the right wall, 7 cm from the floor and 1 cm from the right or left edge of the right wall, respectively. One recessed dish positioned at 2.5 cm above floor level and 6 cm from the levers towards the center of the chamber was the reinforcer receptacle. Fluid (0.1 ml) was delivered from syringe pumps upon activation of 1 of the 2 retractable response levers. A 3 sec tone was activated upon lever pressing. […] The beginning of a training session was signaled by the onset of the house light located in the center of the wall facing the levers, at 27.2 cm above the floor. A computer controlled stimulus and fluid delivery and recorded operant responses.
Before the beginning of EtOH operant self-administration, rats were exposed to a 10% EtOH (1OE) solution as the only liquid source in their home cages for 4 days. For the next 14 days, animals were allowed free choice between 10E in tap water or tap water from graded glass tubes. At the end of this 14-day period, operant self-administration was initiated according to the sucrose fading technique (Samson, 1986) with minor modifications. Rats were restricted to 30 minutes of water per day for 2 consecutive days. On the night of the second day of water restriction, rats were placed in the operant chambers for a 12-15 hrs overnight session on an FR1 schedule (1 reinforcement of 0.1 ml per lever press) with 10% sucrose (10S) as reinforcer and both levers active. The next day, rats began the operant self-administration training. Animals were kept on water restriction for the next 4-5 days during which they received one 45 min session per day on an FR1 schedule with 10S as reinforcer and one active lever. They were then given free water in their home cages for the remainder of the experiment and were trained for 2-3 more of the above described sessions. The next day, sessions were shortened to 30 minutes and the ratio of responding was increased to FR3. EtOH was added to the sweet solution (10S10E) and rats received 3-4 sessions of this solution, followed by at least 20 sessions with 10E only. A minimum average of 0.3 g/kg EtOH consumption in 8 sessions prior to the beginning of any drug treatment was required. […]

Data set [2] in a line: Highest soluble concentration of DMPX in the injection vehicle. Type of data set: physicochemical. The settings on record: saline or isotonic; dissolved in warm saline; read-out: highest DMPX soluble concentration achieved. Here is the method:
as §1

Where [3] appears, read: DMPX 1 mg/kg ip, vs saline, p<0.03.
Setting [4] is: DMPX 10 mg/kg ip, vs saline, p<0.02.
Where [5] appears, read: DMPX 20 mg/kg ip, vs saline, p<0.05.
[6] abbreviates: DPCPX 0.125, 0.25, or 0.5 mg/kg ip, ANOVA NS.

`CCc1cc(Cl)c(OC)c(C(=O)NC[C@@H]2CCCN2CC)c1O` [eticlopride]: the “any of the analyzed measurements (lever presses, reinforcements, g/kg EtOH)” value in data set [1] (eticlopride 0.005 mg/kg sc, vs saline) is given as “did not significantly affect”. The “number of lever presses” value in data set [1] (eticlopride 0.007 mg/kg sc, vs saline, decrease, p<0.005) is given as “significant effects”; in data set [1] (eticlopride 0.01 mg/kg sc, vs saline, decrease, p<0.0001), “significant effects”. Further, the “g/kg of EtOH consumption” value in data set [1] (eticlopride 0.007 mg/kg sc, vs saline, decrease, p<0.01) is given as “significant effects”; in data set [1] (eticlopride 0.01 mg/kg sc, vs saline, decrease, p<0.004), “significant effects”. The number of reinforcements result in data set [1] (eticlopride 0.007 mg/kg sc, vs saline, decrease, p<0.02) is reported as “significant effects”; in data set [1] (eticlopride 0.01 mg/kg sc, vs saline, decrease, p<0.007), “significant effects”. Further, the “EtOH self-administration, effect across doses” value in data set [1] (eticlopride 0.005-0.01 mg/kg sc) was “dose-dependently decreased”; in data set [1] (eticlopride 0.005-0.01 mg/kg sc, listed as Eticlopride), “dose-dependently reduced”.

In the case of `C#CCn1c(=O)c2c(ncn2C)n(C)c1=O` [DMPX, 3,7-Dimethyl-1-propargylxanthine], the “number of lever presses” value in data set [1] (DMPX 1 mg/kg ip, vs saline, p<0.02) was “significantly increased”; in data set [1] (setting [4]), “significantly decreased”. In data set [1] (setting [3]), the “g/kg of EtOH intake” value is listed as “significantly increased”. Also, the “number of EtOH reinforcements” value is given as “significantly increased” in data set [1] (setting [3]) and “significantly decreased” in data set [1] (DMPX 10 mg/kg ip, vs saline, p<0.03). The “any of the measures (lever presses, EtOH reinforcements, g/kg EtOH)” value in data set [1] (DMPX 3 mg/kg ip, vs saline) was “did not significantly affect”; in data set [1] (DMPX 5 mg/kg ip, vs saline), “did not significantly affect”; in data set [1] (DMPX 7 mg/kg ip, vs saline) it was “did not significantly affect”. Further, the “g/kg of EtOH consumption” value in data set [1] (setting [4]) is “significantly decreased”. Besides, the “g/kg EtOH intake” value in data set [1] (setting [5]) is listed as “decreased”. Moreover, the “number EtOH reinforcements” value in data set [1] (setting [5]) was “significant effect”. In data set [1] (DMPX 1-20 mg/kg ip), the “EtOH self-administration, dose-effect function” value is on record as “bimodal effect”. Further, the solubility in data set [2] came out at 10000 µg/mL (≈ 45.8 mM).

Take `CCCn1c(=O)c2[nH]c(C3CCCC3)nc2n(CCC)c1=O` [DPCPX, 8-Cyclopentyl-1,3-dipropylxanthine]: in data set [1] (setting [6]), the “g/kg of EtOH consumption” value is recorded as “no effect”, the “number of EtOH reinforcements” value is listed as “no effect” and the “number of lever presses” value was “no effect”. The “EtOH self-administration, effect across doses” value in data set [1] (DPCPX 0.125-0.5 mg/kg ip) is given as “without effect; also recorded: did not affect”.
